Test results as given in ChEMBL document CHEMBL1150366, “Structural requirements of pyrido[2,3-d]pyrimidin-7-one as CDK4/D inhibitors: 2D autocorrelation, CoMFA and CoMSIA analyses” (Bioorg Med Chem, 2008).

Experiment: Binding affinity to CDK4/D

Compound | log(10'6/IC50)
CC(C)n1c(=O)ccc2cnc(Nc3ccc(N4CCN(C)CC4)cc3)nc21 | 4.49
CN1CCN(c2ccc(Nc3ncc4ccc(=O)n(C5CCCC5)c4n3)cc2)CC1 | 5.05
CCCn1c(=O)ccc2cnc(Nc3ccccc3)nc21 | 3.26
CCn1c(=O)ccc2cnc(Nc3ccc(F)cc3)nc21 | 2.91
CCn1c(=O)ccc2cnc(Nc3ccc(OC)cc3)nc21 | 3.22
CCn1c(=O)ccc2cnc(NC3CCCCC3)nc21 | 2.48
CCn1c(=O)ccc2cnc(Nc3ccc(OCCOC)cc3)nc21 | 2.63
CCn1c(=O)ccc2cnc(Nc3ccc(O)cc3)nc21 | 3.23
COC(=O)Cn1c(=O)ccc2cnc(Nc3ccccc3)nc21 | 1.51
CCn1c(=O)ccc2cnc(NC(C)(C)C)nc21 | 2.28
CC(C)CCn1c(=O)ccc2cnc(Nc3ccccc3)nc21 | 3.8
CC(C)n1c(=O)ccc2cnc(Nc3ccccc3)nc21 | 3.84
COCn1c(=O)ccc2cnc(Nc3ccccc3)nc21 | 2.38
O=c1ccc2cnc(Nc3ccccc3)nc2n1[C@H]1C[C@H]2CC[C@H]1C2 (relative stereo) | 4.42
Cn1c(=O)ccc2cnc(Nc3ccccc3)nc21 | 2.26
CCN(CC)CCOc1ccc(Nc2ncc3ccc(=O)n(C4CCCC4)c3n2)cc1 | 6.15
COCCn1c(=O)ccc2cnc(Nc3ccccc3)nc21 | 2.54
CCCCn1c(=O)ccc2cnc(Nc3ccccc3)nc21 | 2.83
CN1CCN(c2ccc(Nc3ncc4ccc(=O)n(-c5ccccc5)c4n3)cc2)CC1 | 3.76
CN1CCN(c2ccc(Nc3ncc4ccc(=O)n(C5CCCCC5)c4n3)cc2)CC1 | 5.4
O=c1ccc2cnc(Nc3ccccc3)nc2n1Cc1ccccc1 | 3.03
CCn1c(=O)ccc2cnc(N(C)c3ccccc3)nc21 | 1.4
CCN(CC)CCOc1ccc(Nc2ncc3ccc(=O)n([C@H]4C[C@H]5CC[C@H]4C5)c3n2)cc1 (relative stereo) | 3.35
CCn1c(=O)ccc2cnc(Nc3ccc(N4CCOCC4)cc3)nc21 | 3.52
CCn1c(=O)ccc2cnc(Nc3cccc(F)c3)nc21 | 2.85
CCn1c(=O)ccc2cnc(Nc3cccc(OC)c3)nc21 | 1.4
O=c1ccc2cnc(Nc3ccccc3)nc2n1-c1ccccc1 | 2.78

Compound | log(10'6/IC50)
CC(C)CCn1c(=O)ccc2cnc(Nc3ccc(N4CCN(C)CC4)cc3)nc21 | 4.89
CCN(CC)CCOc1ccc(Nc2ncc3ccc(=O)n(CC)c3n2)cc1 | 3.8
CN1CCN(c2ccc(Nc3ncc4ccc(=O)n(C5CC5)c4n3)cc2)CC1 | 3.85
O=c1ccc2cnc(Nc3ccccc3)nc2n1C1CCCC1 | 3.68
CN1CCN(c2ccc(Nc3ncc4ccc(=O)n(CC(O)CO)c4n3)cc2)CC1 (centres undefined) | 2.78
CC(C)Cn1c(=O)ccc2cnc(Nc3ccccc3)nc21 | 3.53
O=c1ccc2cnc(Nc3ccccc3)nc2n1CC1CO1 (centres undefined) | 2.3
CCOCCn1c(=O)ccc2cnc(Nc3ccccc3)nc21 | 2.11
CCn1c(=O)ccc2cnc(NCc3ccccc3)nc21 | 1.4
CCNc1ncc2ccc(=O)n(CC)c2n1 | 1.92
CCn1c(=O)ccc2cnc(Nc3ccncc3)nc21 | 2.93
CN1CCN(c2ccc(Nc3ncc4ccc(=O)n([C@H]5C[C@H]6CC[C@H]5C6)c4n3)cc2)CC1 (relative stereo) | 5.22
O=c1ccc2cnc(Nc3ccccc3)nc2n1C1CCCCC1 | 4.33
CCn1c(=O)ccc2cnc(NC(C)C)nc21 | 2.36
CCn1c(=O)ccc2cnc(Nc3ccc(-n4cccc4)cc3)nc21 | 2.56
CCn1c(=O)ccc2cnc(Nc3ccccc3)nc21 | 3.21
CCn1c(=O)ccc2cnc(Nc3ccc(OC)c(OC)c3)nc21 | 2.39
CN1CCN(c2ccc(Nc3ncc4ccc(=O)n(CCOCc5ccccc5)c4n3)cc2)CC1 | 2.68
CCn1c(=O)ccc2cnc(Nc3cccc(OC(F)(F)C(F)F)c3)nc21 | 2.11
CCN(CC)CCOc1ccc(Nc2ncc3ccc(=O)n(C(C)C)c3n2)cc1 | 4.35
O=c1ccc2cnc(Nc3ccccc3)nc2n1CC1CCCCC1 | 1.87
CCN(CC)CCOc1ccc(Nc2ncc3ccc(=O)n(C4CCCCCC4)c3n2)cc1 | 5.4
CCn1c(=O)ccc2cnc(Nc3ccc(N4CCN(C)CC4)cc3)nc21 | 4.07
O=c1ccc2cnc(Nc3ccccc3)nc2n1C1CCCCCC1 | 3.74
CCC(C)n1c(=O)ccc2cnc(Nc3ccccc3)nc21 (centres undefined) | 3.72
CCn1c(=O)ccc2cnc(Nc3ccc(O)c(OC)c3)nc21 | 2.74
CCN(CC)CCOc1ccc(Nc2ncc3ccc(=O)n(C4CCCCC4)c3n2)cc1 | 4.96
